Tests used:
[1] = system: HIV-1wtNef-GFP vesicle secretion in Jurkat cells; assay: Nef-GFP co-transfection secretion assay; format: cell-based; details: 500 ng HIV-1wtNef-GFP + 7.8-500 ng peptide, Chariot
Description: In another experiment, Jurkat cells were co-transfected with 500 ng HIV-1wtNef-GFP and 7.8-500 ng of SMRwt peptide by Chariot. As shown in FIG. 3A the SMRwt peptide inhibits the vesicle secretion in Jurkat cells.

R7 in Jurkat cells = assay: Confocal microscopy of p24 in R7 transfected cells; format: cell-based, HIV; details: day 3, 6, 10, 14, 17 after transfection with R7, accumulation in cytoplasm day 3, 6, 10
Source text: FIG. 4A is a composite of diagrams showing ELISA analysis of p24 concentration in Jurkat cells (panel A), HEK293 cells (panel B), THP-1 Monocytes (panel C) and U937 monocytes (panel D). FIG. 4B is a composite of confocal microscope pictures showing blocking of p24 release in Jurkat cells by SMRwt peptide (panel A) but not by SMRrmt peptide (panel B). FIG. 4C is a composite of confocal and electron microscope pictures showing viral particle distribution in Jurkat cells at day 6 post-transfection with R7 and SMRwt peptide (panel A-1) or with R7 and SMRmt peptide (panel B-1). FIG. 4D is a composite of confocal and electron microscope pictures showing viral particle distribution in Jurkat cells at day 14 post-transfection with R7 and SMRwt peptide (panel A-2) or with R7 and SMRmt peptide (panel B-2), FIG. 4E is a composite of confocal and electron microscope pictures showing viral particle distribution in subcellular structures in Jurkat cells at day 6 post-transfection with R7 and SMRwt peptide (panel A-1) or with R7 and SMRmt peptide (panel B-1) in Jurkat cells and at day 14 post-transfection with R7 and SMRwt peptide (panel A-2) or with R7 and SMRmt peptide (panel B-2) in Jurkat cells.
The effect of SMRwt, however, seems to be temporary. It appears that Jurkat and HEK cells can degrade the peptide over time, while U937 monocytes cannot degrade the peptide. […]

R7; Magi/CXCR4 cells = assay: Magi assay of viral infectivity, supernatants of THP-1 monocytes; format: cell-based, HIV; details: supernatant from transfected THP-1 monocytes
Description: Magi/CXCR4 cells were exposed to 48 hour conditioned supernatants from Jurkat cells, HEK293 cells, THP-1 monocytes, or U937 monocytes transfected with either R7 viral DNA/SMRwt peptide or R7 viral DNA/SMRmt peptide. These cells were then fixed and stained with X-Gal. […] Cells productively infected with R7 are easily visualized under light microscopy by their blue nuclear staining. Magnification ×20. […] This is indicative of virus in the conditioned supernatant from the R7/negative control peptide treated cells and no virus in conditioned supernatant from the R7/antagonist treated cells.
These Magi cultures were quantitated for blue staining cells. The data was plotted as a function of time post-transfection. […] This is possibly due to antagonism of trafficking of viral component(s) to the cytoplasmic membrane. Ultimately this would shutdown the HIV infection and block progression to AIDS.

[2] = system: Mortalin/GRP75 and other cellular factors of Jurkat cell lysates; assay: FLAG immuno-precipitation pulldown of cellular factors, MS and Western blot; format: binding; details: FLAG IP on Jurkat cell lysates
Description: SMRwt vs. SMRmt peptides were used in conjunction with FLAG immuno-precipitation on Jurkat cell lysates to pulldown cellular factors that interacted with the SMRwt antagonist, but not with the SMRmt negative control. The cellular factor(s) that interact with the antagonist are analyzed by the FLAG IP assay. Briefly, cell lysates are combined with AminoLink Plus resin coupled to FLAG-tagged SMR peptides. SMR-specific cellular proteins (ROY) bind to the SMR peptides on the resin. Non-specific contaminants (G BIV) are washed off of the resin and removed by centrifugation. The SMR-specific cell proteins (ROY) are eluted and collected. Some strongly bound contaminants (V) are also eluted and collected.
Mortalin interacts with p53, and is shown to be involved in apoptosis and vesicle transport (MAC complex). It is also found in microvesicles released by tumor cells.
The gel was also Western probed with α-Mortalin antibody. A protein with a molecular weight of ˜75 kDa was detected in the lanes containing the cell lysate, the antagonist eluate, and the antagonist affinity resin (FIG. 13, panel B, Lanes 1, 3, and 5), but not in the negative control or negative control peptide eluate's lanes (FIG. 13, panel B, Lanes 2 and 4).

H-VGFPVAAVGFPVDYKDDDDK-OH [SMRwt] was tested, and the “vesicle secretion (Nef-GFP)” value [1] was “inhibits the vesicle secretion in Jurkat cells in a dose-dependent manner”, the “p24 release (confocal microscopy)” value (R7 in Jurkat cells) was “blockage of p24 release” and the “numbers of infected Magi cells as a function of time post-transfection” value (R7; Magi/CXCR4 cells) was “significantly reduced”. The “~75 kDa protein in peptide eluate, Western probed with α-Mortalin antibody” value [2] was “detected” and the “cellular proteins in bands of the SMRwt lane but not the SMRmt lane (MALDI TOF MS/MS, LC/MS/MS)” value ([2]; SDS PAGE) was “Mortalin/GRP75; Myosin 10; Vimentin; GRP78; HSC70”.

— patent US8431530B2, “Compositions and methods for treating aids or cancer by inhibiting the secretion of microparticles” (priority 2009, dated 2013)
